For one experiment, the target named is T1, human KOPr (Homo sapiens, UniProt P41145).
T1 construct: expressed in transfected cells; HEK293-Glo20F cells (cAMP)
As to the kind of experiment: biochemical. The experiment is classed as binding. Particulars: [3H]-diprenorphine.

The test system of a further experiment is C57BL/6N mice. As to the kind of experiment: Tail immersion test after acute sc. administration. The experiment is classed as in vivo. The method, then:
Animal experiments were performed on adult male C57BL/6N male mice (25-30 g weight; Janvier labs, France). Animals were housed in groups of three to five per cage and kept under a 12 h/12 h light/dark cycle at 21±1° C. with ad libitum access to food and water. Experiments were performed during the light-on phase of the cycle. Mice were habituated to the testing room and equipment before starting behavioral experiments. Control and treated group assignment as well as pain response measurements were performed in a blinded manner. Every animal was used only once. 1.11. Drug administration All drugs were dissolved in physiological saline (0.9%) and administered subcutaneously (sc.) at 10 mL/kg (volume/body weight). […] Assessment of thermal nociception The nociceptive sensitivity to thermal stimulation was determined in mice using the warm-water tail immersion tests as previously described [12; 49]. In the tail immersion test, C57BN/6N mice were restrained in a grid pocket and their tail was immersed in a thermostated water bath. […] For analgesic tolerance evaluation, nociceptive latencies were measured on day 1 and 8 according to the acute effect protocol. For the assessment of hyperalgesia, basal nociceptive latencies were measured every day, 30 min before drug or saline injection. Responses are expressed as latency times (in sec) of tail withdrawal from the hot water.

A further experiment has as its target T2, GPR54 (Homo sapiens, UniProt Q969F8).
T2 construct: expressed in transfected cells; host or cells: CHO cells, membranes
As to the kind of experiment: Radioligand competition binding with [125I]-Kp-10. Background: In a radioligand displacement assay an active substance lowers the binding of a labelled ligand.

The next experiment concerns the target human MOPr (Homo sapiens, UniProt P35372). As to the kind of experiment: BRET1 β-arrestin-2 recruitment assay.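 As to Emax: Emax relative to maximal DAMGO-induced BRET as 100%.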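 As to MOPr (β-arrestin-2) Emax: Emax relative to maximal DAMGO-induced BRET as 100%.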 Particulars: for Emax: read-out: MOPr (β-arrestin-2) Emax. The arrangement: expressed in transfected cells; host or cells: HEK293 cells stably expressing eYFP-β-arrestin-2, transiently transfected with the Rluc8-MOP plasmid. The experiment is classed as cell-based. In short, it runs like this:
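HEK293 cells stably expressing eYFP-β-arrestin-2 were transfected two days before with Rluc8-tagged MOP receptor. BRET was read at 37 °C with 5 μM coelenterazine H, 5 min after agonist addition.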
In general terms: Bioluminescence resonance energy transfer reports proximity on the nanometre scale.

Experiment [1] deals with T3, human NOPr (Homo sapiens, UniProt P41146).
T3 construct: expressed in transfected cells
T3 sequence (P41146 whole entry): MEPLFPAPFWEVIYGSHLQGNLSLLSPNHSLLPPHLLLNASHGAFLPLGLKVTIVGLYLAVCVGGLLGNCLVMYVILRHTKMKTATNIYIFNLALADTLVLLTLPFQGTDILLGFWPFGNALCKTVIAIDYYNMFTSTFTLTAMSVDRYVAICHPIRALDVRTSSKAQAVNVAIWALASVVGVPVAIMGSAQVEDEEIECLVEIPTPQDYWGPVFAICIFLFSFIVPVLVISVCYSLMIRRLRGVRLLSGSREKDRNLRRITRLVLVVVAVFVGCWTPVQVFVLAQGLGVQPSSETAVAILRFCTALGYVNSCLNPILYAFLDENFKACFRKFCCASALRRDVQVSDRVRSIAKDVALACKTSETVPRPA
As to the kind of experiment: Radioligand competition binding with [3H]-nociceptin.

The next experiment concerns the target T4, GPR10 (Homo sapiens, UniProt P49683).
T4 construct: expressed in transfected cells; host or cells: CHO cells (gift from M. Parmentier, IRIBHM, Brussels), membranes
T4 sequence (P49683 1-370): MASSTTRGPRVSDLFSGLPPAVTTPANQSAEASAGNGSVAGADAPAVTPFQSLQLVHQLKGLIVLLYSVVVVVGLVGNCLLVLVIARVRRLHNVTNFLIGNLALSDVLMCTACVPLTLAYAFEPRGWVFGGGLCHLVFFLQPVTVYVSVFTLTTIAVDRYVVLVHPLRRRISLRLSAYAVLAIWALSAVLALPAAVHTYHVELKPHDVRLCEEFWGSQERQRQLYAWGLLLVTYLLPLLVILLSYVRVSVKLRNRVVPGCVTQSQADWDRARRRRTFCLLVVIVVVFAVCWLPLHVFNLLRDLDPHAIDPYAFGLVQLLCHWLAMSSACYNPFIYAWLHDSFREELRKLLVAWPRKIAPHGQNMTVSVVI
As to the kind of experiment: Radioligand competition binding with [3H]-PrRP-20.

Experiment [2] has as its target T3, human NOPr. As to the kind of experiment: Glo-sensor cAMP assay. The experiment is classed as cell-based. The method, then:
Stimulation by endogenous RF-amide peptides or test compounds for [^35S]-GTPγS binding to membranes from CHO cells expressing human NPFF1R or NPFF2R, were examined as reported. 1.6. Glo-Sensor cAMP Assay cAMP accumulation assay was essentially done as described with the following modifications: HEK293 cells stably expressing cAMP Glosensor-20F were used, with or without additional stable expression of each individual opioid receptor or NPFF1R. The cAMP responses were measured in presence of D-luciferin (1 mM).
(Changes in cAMP serve as a functional read-out for many G protein-coupled receptors.)

In a further experiment the target is T5, GPR103 (Homo sapiens, UniProt Q96P65).
T5 construct: expressed in transfected cells; host or cells: CHO cells (gift from M. Parmentier, IRIBHM, Brussels), membranes
T5 sequence (Q96P65 1-431): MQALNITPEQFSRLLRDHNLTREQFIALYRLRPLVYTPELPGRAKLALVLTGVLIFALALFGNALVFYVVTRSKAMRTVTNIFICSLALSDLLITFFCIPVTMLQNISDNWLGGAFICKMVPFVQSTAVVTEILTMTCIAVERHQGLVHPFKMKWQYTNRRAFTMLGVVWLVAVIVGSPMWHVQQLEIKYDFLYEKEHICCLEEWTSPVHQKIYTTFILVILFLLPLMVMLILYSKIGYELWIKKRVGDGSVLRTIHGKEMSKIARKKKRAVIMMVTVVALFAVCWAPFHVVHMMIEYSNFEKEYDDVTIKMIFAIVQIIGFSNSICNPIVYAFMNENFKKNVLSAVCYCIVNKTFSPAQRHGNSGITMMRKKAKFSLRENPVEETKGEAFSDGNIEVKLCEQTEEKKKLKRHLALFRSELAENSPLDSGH
As to the kind of experiment: Radioligand competition binding with [125I]-43RFa.

Another experiment concerns the target NPFF2R (Homo sapiens, UniProt Q9Y5X5). As to the kind of experiment: Radioligand competition binding with [125I]-1-DMe-NPFF. The arrangement: expressed in transfected cells; HEK293-Glo20F cells (cAMP).
[3] abbreviates: Table 3a, read-out: MOPr (β-arrestin-2) EC50.
Setting [4] is: [125I]-Kp-10, read-out: Ki ± SEM GPR54.
The mark [5] stands for this setting: [3H]-PrRP-20, read-out: Ki ± SEM GPR10.
Setting [6] is: [125I]-43RFa, read-out: Ki ± SEM GPR103.

Read-outs that look alike come from different tables or passages of the source. Residues, ends and D or L forms follow the SMILES beside them. A value given as a limit tells only on which side of the number the result lay.

The values that follow come from US20210002231A1 (Centre National de la Recherche Scientifique, priority 2018, published 2021).

For orientation: Ki means a measure of affinity in units of concentration, obtained from inhibition or displacement. As usually defined, the EC50 is the midpoint of the concentration-response curve. What is called Emax is the maximal effect, on the per cent scale that the assay sets.

T2 sequence (Q969F8 whole entry): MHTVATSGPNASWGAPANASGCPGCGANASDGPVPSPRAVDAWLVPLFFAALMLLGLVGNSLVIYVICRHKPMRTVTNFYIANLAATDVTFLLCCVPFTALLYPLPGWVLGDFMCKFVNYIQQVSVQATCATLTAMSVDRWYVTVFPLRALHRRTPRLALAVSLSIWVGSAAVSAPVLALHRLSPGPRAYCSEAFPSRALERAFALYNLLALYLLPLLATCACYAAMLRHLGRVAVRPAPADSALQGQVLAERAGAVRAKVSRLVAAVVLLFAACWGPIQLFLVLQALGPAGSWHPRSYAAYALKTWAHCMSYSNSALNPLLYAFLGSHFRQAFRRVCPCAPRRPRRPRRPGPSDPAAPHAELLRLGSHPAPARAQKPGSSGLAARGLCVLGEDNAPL
Sequence of human MOPr (P35372 whole entry): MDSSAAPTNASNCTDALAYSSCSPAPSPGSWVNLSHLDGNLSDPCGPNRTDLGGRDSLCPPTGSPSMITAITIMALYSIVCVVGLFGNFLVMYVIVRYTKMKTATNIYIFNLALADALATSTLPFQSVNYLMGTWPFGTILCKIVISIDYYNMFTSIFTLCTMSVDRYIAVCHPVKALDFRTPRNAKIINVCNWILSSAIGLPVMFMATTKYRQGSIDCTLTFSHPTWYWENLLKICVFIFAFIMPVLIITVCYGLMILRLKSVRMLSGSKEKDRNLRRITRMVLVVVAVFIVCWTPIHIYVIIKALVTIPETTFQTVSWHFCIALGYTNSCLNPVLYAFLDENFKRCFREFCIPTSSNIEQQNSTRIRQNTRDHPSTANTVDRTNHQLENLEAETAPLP
T1 sequence (P41145 whole entry): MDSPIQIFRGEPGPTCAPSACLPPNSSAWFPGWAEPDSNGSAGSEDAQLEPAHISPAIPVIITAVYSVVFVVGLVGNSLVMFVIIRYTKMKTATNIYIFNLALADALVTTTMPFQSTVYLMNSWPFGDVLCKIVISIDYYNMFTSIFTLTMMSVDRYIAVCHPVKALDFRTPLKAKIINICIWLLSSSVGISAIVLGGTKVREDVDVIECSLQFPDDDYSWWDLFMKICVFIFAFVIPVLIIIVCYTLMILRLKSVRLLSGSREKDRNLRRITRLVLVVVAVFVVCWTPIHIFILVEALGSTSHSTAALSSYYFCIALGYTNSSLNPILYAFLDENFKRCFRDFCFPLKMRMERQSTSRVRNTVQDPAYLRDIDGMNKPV
Sequence of NPFF2R (Q9Y5X5 whole entry): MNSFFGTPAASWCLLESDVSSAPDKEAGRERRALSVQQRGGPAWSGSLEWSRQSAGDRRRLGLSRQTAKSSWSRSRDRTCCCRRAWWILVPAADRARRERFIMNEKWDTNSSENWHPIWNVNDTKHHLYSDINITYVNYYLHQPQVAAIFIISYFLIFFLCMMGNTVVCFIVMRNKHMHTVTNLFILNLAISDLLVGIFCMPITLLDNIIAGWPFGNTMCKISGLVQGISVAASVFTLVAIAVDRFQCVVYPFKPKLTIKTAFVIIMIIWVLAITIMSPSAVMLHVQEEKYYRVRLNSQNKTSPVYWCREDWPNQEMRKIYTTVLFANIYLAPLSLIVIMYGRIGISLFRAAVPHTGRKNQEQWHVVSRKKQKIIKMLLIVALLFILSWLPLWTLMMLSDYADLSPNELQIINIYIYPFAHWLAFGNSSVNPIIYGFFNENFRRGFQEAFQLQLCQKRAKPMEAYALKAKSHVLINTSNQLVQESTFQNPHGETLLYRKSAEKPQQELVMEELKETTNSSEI

`Cc1cc(O)cc(C)c1C[C@H](N)C(=O)N[C@H](CCCNC(=N)N)C(=O)N[C@H]1Cc2ccccc2CN(CCC(=O)N[C@@H](CCCNC(=N)N)C(=O)N[C@@H](Cc2ccccc2)C(N)=O)C1=O` [KGFF03, H-Dmt-D-Arg-Aba-β-Ala-Arg-Phe-NH2] (HELM PEPTIDE1{[Cc1cc(O)cc(C)c1C[C@H](N)C(=O)[*:2]].[dR].[O=C1[C@@H](N[*:1])Cc2ccccc2CN1CCC(=O)[*:2]].R.F.[am]}$$$$V2.0): the Ki was 0.108 ± 0.028 µM on human KOPr; 4.37 µM on GPR54; 0.289 ± 0.003 µM at human NOPr [1]; > 10 µM at GPR10; > 10 µM at GPR103. Also, the “potency in inducing antinociception compared to KGOP01” value in the experiment on C57BL/6N mice is “equipotent”. Besides, the EC50 at human MOPr (setting [3]) amounted to 0.0339 ± 0.0088 µM. At human MOPr (in words), the β-arrestin-2 recruitment result is reported as “partial agonism”. The maximal response (Emax) was found to be 41 ± 11% on human MOPr and 15 ± 2% on human NOPr [2]. At human NOPr [2], this molecule gave a Kb of 5.01 µM.
For `Cc1cc(O)cc(C)c1C[C@H](N)C(=O)N[C@H](CCCNC(=N)N)C(=O)N[C@H]1Cc2ccccc2CN(CCC(=O)N[C@@H](CCCN2CCC(Cc3ccccc3)CC2)C(=O)N[C@@H](Cc2ccccc2)C(N)=O)C1=O` [KGFF09, H-Dmt-D-Arg-Aba-β-Ala-Bpa-Phe-NH2], the “potency in inducing antinociception compared to KGOP01” value in the experiment on C57BL/6N mice came to 4.5 fold less potent. For the same molecule, the Ki at GPR54 (setting [4]) was 2 µM; at human NOPr [1], 0.209 ± 0.002 µM; on GPR10 (setting [5]) it was > 10 µM; at GPR103 (setting [6]), 1.2 µM. Moreover, the EC50 is 0.0564 ± 0.0265 µM at human MOPr (setting [3]) and > 10 µM on human NOPr [2]. Further, on human MOPr (in words), the β-arrestin-2 recruitment result is on record as “partial agonism”. The maximal response (Emax) at human MOPr is 42 ± 2%; at human NOPr [2] it was 7 ± 3%. In addition, the Kb at human NOPr [2] (read-out: pA2, antagonist activity at the NOPr (converted)) is 1.15 µM.
As to `Cc1cc(O)cc(C)c1C[C@H](N)C(=O)N[C@H](CCCNC(=N)N)C(=O)N[C@H]1Cc2ccccc2CN(CCC(N)=O)C1=O` [KGOP01, reference compound], the inhibition constant (Ki) on NPFF2R was 4.5 µM; at human KOPr, 0.0373 ± 0.0096 µM; at GPR54 (setting [4]), > 10 µM; at human NOPr [1], > 10 µM; on GPR10 (setting [5]), > 10 µM; at GPR103 (setting [6]) it was > 10 µM. Also, the concentration giving a half-maximal response (EC50) at human MOPr was found to be 0.0016 ± 0.0001 µM. In addition, at human MOPr, the β-arrestin-2 recruitment result is given as “full response”. For the same molecule, the maximal effect (Emax) on human MOPr came to 103 ± 9%.
